Reference: US20070117864A1, “Composition for preventing and treating hepatoma” (Tokyo University of Agr. & Tech. TLO Co., Ltd., priority 2003, published 2007)
Marks after values point to notes of the source that are not given here.

Assay: fecal steroid excretion in hepatoma-bearing rats
Assay type: in vivo, rat
Details: for Steroid excretion Bile acids / Steroid excretion Neutral sterols: feces, final two days, mean ± SEM of 11 rats
Procedure: Male Donryu rats of four weeks old were purchased from NRC Haruna, Gumma, Japan, and were preliminarily fed for 6 days in quintuple cages in a room with a controlled environment with light period of 8:00 to 20:00, room temperature of 22±1° C., and relative humidity of 60±5%. For the first 3 days, the animals were fed ad libitum with a stock pellet diet (CE-2; CLEA Japan, Tokyo), and for the next 3 days, they were fed a basal diet containing 20% milk casein (20C) (Table 1) ad libitum together with tap water in a glass container. Following the completion of this preparatory raising, the rats were divided into three groups (11 animals per group) with equal average body weights of the respective groups were equal, and 1.0×10^7 of AH109A cells suspended in PBS (−) were transplanted in the back of all the rats. From the time immediately after transplantation, in the respective experimental groups, the animals were fed the experimental diets shown in Table 2.
During the experimental period, the body weight, food intake and solid tumor size (sum of length, width and height) were measured everyday. On the day that the animals were killed, animals were deprived of experimental diets at 9:00, but freely given water until they were killed 4 hours later. Blood was collected from carotid, and the liver and solid tumors were excised. The collected blood was allowed to stand for approximately 2 hours at room temperature, and then centrifuged for 10 minutes at 3000 rpm (1750×g), 4° C., to obtain serum. This blood serum was frozen and stored at −20° C. The livers and solid tumors were washed with physiological saline, blotted on filter paper, and weighed. Furthermore, feces from the 19th to 21st days after transplantation were collected, and these feces were frozen and stored at −20° C. for the measurement of the amounts of steroids excreted from the body.
The amounts of fecal steroids, neutral sterol (NS) and bile acid (BA), excreted into feces were measured. The feces were dried at 60° C., and the dry weight was measured; then, the feces were pulverized using a mixer and a mortar and pestle. Approximately 100 mg of feces was precisely weighed and placed in a screw-capped test tube, and then was saponified for 1 hour at 70° C. by adding 1.5 ml of 4 N potassium hydroxide solution and 1 ml of ethanol. The NS was extracted by transferring the n-hexane layer to a test tube by adding 3 ml of n-hexane to a test tube, shaking this mixture and then subjecting to centrifugal separation at 3000 rpm (1750×g) for 10 minutes. The same operation was performed three times. Subsequently, with […] of distilled water to dilute potassium hydroxide concentration thereof to 1.2 N, and the mixture was subjected to a high-pressure treatment (autoclaved) for 3 hours at 121° C., to deconjugate the conjugated BA. After the preparation was allowed to stand until cool, BA was extracted by adding 3 ml of diethyl ether after adjusting the pH of the solution to 1 with 0.8 ml of hydrochloric acid, and the resulting mixture was shaked; then, subjecting this preparation to centrifugal separation for 10 minutes at 3000 rpm (1750×g), to transfer the diethyl ether layer to a test tube. This operation was performed three times.
The n-hexane extract was dried; then, was added with 0.4 ml of isopropanol and 1.6 ml of 10% Triton X-100. to dissolve the NS. An aliquot (0.24 ml) of this solution was sampled, and was subjected to measurement of NS using a cholesterol C test Wako. […]

With `O=C1OCC(Cc2cccc(O)c2)C1Cc1cccc(O)c1` (centres unmarked) [Enterolactone, enterolactone] the “amounts of neutral sterol and bile acid excreted into the feces” value (ENL diet groups versus control diet group) was “significant and dose-dependent increase”, the “Steroid excretion Bile acids” value (diet 10 ppm) was 18.7 ± 1.49^ab μmol/2 days and the “Steroid excretion Neutral sterols” value (diet 10 ppm) was 29.5 ± 2.7^b μmol/2 days. The “Steroid excretion Bile acids” value (diet 100 ppm) was 20.8 ± 1.89^b μmol/2 days and the “Steroid excretion Neutral sterols” value (diet 100 ppm) was 30.9 ± 2.18^b μmol/2 days.
